The values below come from patent publication US11602534B2, “Pyrimidine derivative kinase inhibitors” (HEFEI INSTITUTES OF PHYSICAL SCIENCE, CHINESE ACADEMY OF …, priority 2017, dated 2023).

A value given as a limit tells only on which side of the number the result lay.

The test system of one experiment is BaF3. In words: Proliferation of BaF3 cells, CCK8 cell viability assay. It is filed as cell-based. The following applies: Mus musculus, 72 hours. Put shortly:
(§1)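 Murine BaF3 lines carry retrovirally transduced human kinase domains fused to an N-terminal TEL fragment (cKIT, PDGFRα or PDGFRβ), and IL-3 is withdrawn so their growth depends on the fused kinase; parental BaF3 serves as the reference line. Living cells were quantified by CCK8 dehydrogenase activity, giving GI50 in μM.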
(Formazan colour is commonly taken as a measure of viable cells.)

The next experiment has as its system Tel-cKit-BaF3. As to the kind of experiment: Proliferation of Tel-cKit-BaF3 cells, CCK8 cell viability assay. It counts as cell-based, mouse. The following applies: Mus musculus; 72 hours, CCK8; stably expressing cKIT kinase. Put shortly:
as §1

The test system of the next experiment is Tel-cKit/T670I-BaF3. As to the kind of experiment: Proliferation of Tel-cKit/T670I-BaF3 cells, CCK8 cell viability assay. The following applies: Mus musculus, 72 hours, stably expressing cKIT/T670I. It counts as cell-based. Put shortly:
as §1

A further experiment concerns Tel-FLT3-BaF3. In words: Proliferation of Tel-FLT3-BaF3 cells, CCK8 cell viability assay. It counts as cell-based. To be noted: Mus musculus, 72 hours, stably expressing FLT3 kinase. An outline of the steps:
(§2)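 Human kinase-region sequences were PCR-amplified, fused behind N-terminal TEL in MSCV-Puro and stably introduced into mouse BaF3 by retrovirus. IL-3 was then removed to give kinase-dependent lines. Compound effects on these and on parental BaF3 are scored as GI50 (μM) via CCK8 viable-cell quantification.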

Another experiment concerns FLT3-ITD-BaF3. In words: Proliferation of FLT3-ITD-BaF3 cells, CCK8 cell viability assay. To be noted: Mus musculus, 72 hours, stably expressing FLT3/ITD. It counts as cell-based. Put shortly:
as §2

The next experiment concerns TEL-PDGFRα-BaF3. In words: Proliferation of TEL-PDGFRα-BaF3 cells, CCK8 cell viability assay. It is filed as cell-based. The following applies: Mus musculus, 72 hours, stably expressing PDGFRα kinase. An outline of the steps:
as §1

In another experiment the test system is TEL-PDGFRβ-BaF3. In words: Proliferation of TEL-PDGFRβ-BaF3 cells, CCK8 cell viability assay. To be noted: Mus musculus, 72 hours, stably expressing PDGFRβ kinase. It counts as cell-based. An outline of the steps:
as §1

Another experiment deals with TEL-VEGFR2-BaF3. In words: Proliferation of TEL-VEGFR2-BaF3 cells, CCK8 cell viability assay. To be noted: Mus musculus, 72 hours, stably expressing VEGFR2 kinase. It counts as cell-based. An outline of the steps: as §2
The test system of experiment [1] is human acute myeloid leukemia cell strain MOLM-13. In words: Proliferation of MOLM-13 cells, Cell Titer-Glo. It is filed as cell-based. To be noted: summary of Table 3. The procedure:
(§3) In addition, in this example the inhibitory activity of preferred compounds (Compound 5 and Compound 135) was tested against the following cell strains: human acute myeloid leukemia cell strain MV4-11 (expressing FLT3/ITD mutant gene), human acute myeloid leukemia cell strain MOLM-13 (expressing FLT3/ITD mutant gene and wild-type FLT3 gene), human acute myeloid leukemia cell strain MOLM-14 (expressing FLT3/ITD mutant gene and wild-type FLT3 gene), human acute myeloid leukemia cell strain OCI-AML-3 (expressing FLT3 A680V mutant gene), human chronic lymphatic leukemia cell strain MEC-1, Chinese hamster lung (CHL) cells, Chinese hamster ovary (CHO) cells, wherein all the cells were purchased from ATCC. In the example the compounds of the present invention were added respectively into the above cells at different concentrations (0.000508 μM, 0.00152 μM, 0.00457 μM, 0.0137 μM, 0.0411 μM, 0.123 μM, 0.370 μM, 1.11 μM, 3.33 μM, 10 μM in DMSO) and the cells were incubated for 72 hours. The number of viable cells was determined by quantification of ATP in living cells using Cell Titer-Glo® (Promega, the USA) Luminescent Cell Viability Assay kit and thereby GI50 was calculated.
(Cellular ATP, detected with luciferase, serves as a proxy for viable cell number.)

The test system of experiment [2] is human acute myeloid leukemia cell strain MV4-11. As to the kind of experiment: Proliferation of MV4-11 cells, Cell Titer-Glo. It counts as cell-based. The following applies: summary of Table 3. The procedure:
as §3

Experiment [3] concerns human acute myeloid leukemia cell strain MOLM-14. As to the kind of experiment: Proliferation of MOLM-14 cells, Cell Titer-Glo. It counts as cell-based. To be noted: summary of Table 3. On the procedure:
as §3

In the next experiment the test system is protein kinase FLT3. In words: Phosphorylation of FLT3 in AML cells. To be noted: MV-4-11, MOLM-13 and MOLM-14 cell lines; 4 hours; compounds 0.01-3 μM, PKC412 1 μM. It is filed as cell-based, human. The procedure: (§4) In cells having FLT3 gene and/or FLT3/ITD mutant gene, specifically, human acute myeloid leukemia cells MV4-11 (expressing FLT3/ITD mutant gene) cell strain and human acute myeloid leukemia cells MOLM-13 and MOLM-14 (expressing FLT3/ITD mutant gene and wild-type FLT3 gene) cell strains, Compound 5, Compound 135 and a FLT3 kinase inhibitor, PKC412 (purchased from Hao Yuan Chemexpress Company, Shanghai), which was used as the control, were evaluated for their effects in cells on phosphorylation of FLT3 and FLT3/ITD protein kinase and phosphorylation of the closely-related STATS protein which is downstream of FLT3 signaling pathways, as well as their effects on phosphorylation of other relevant protein kinases such as ERK and AKT, by assaying a number of cellular biochemical and functional endpoints. In addition, the effects on C-Myc and phosphorylation of the transcription factor NF-κB subunit p65 was also examined (FIGS. 1a-1f). Compound 5 and Compound 135 at different concentrations (0 μM, 0.01 μM, 0.03 μM, 0.1 μM, 0.3 μM, 1 μM, 3 μM in DMSO) and the FLT3 kinase inhibitor PKC412 (1 μM in DMSO) were used to treat acute myeloid leukemia cells MV-4-11, MOLM13 and MOLM-14 that had FLT3 and/or FLT3/ITD gene for 4 hours, respectively, and then the samples were collected. The effects of the compounds on the phosphorylation of proteins such as STATS, C-Myc, ERK, NF-κB p65, AKT in cells were tested (FIGS. 1a-1f).

Experiment [4] can be described thus: Phosphorylation of STATS downstream of FLT3 in AML cells. It is filed as cell-based, human. To be noted: MV-4-11, MOLM13 and MOLM-14; 4 hours; compounds 0.01-3 μM, PKC412 1 μM. On the procedure: as §4
For the next experiment, the system named is C-Myc. As to the kind of experiment: Degradation of C-Myc in AML cells. It counts as cell-based, human. To be noted: MV-4-11, MOLM13 and MOLM-14; 4 hours; compounds 0.01-3 μM, PKC412 1 μM. The procedure:
as §4

As a reminder, the GI50 is the concentration giving 50% growth inhibition. A high value points to lower sensitivity of the cells. In the case of `CC(=O)Nc1cc(Oc2ccc(NC(=O)Cc3ccc(C(F)(F)F)cc3C(F)(F)F)cc2)ncn1` [Example 3, N-[4-(6-acetylamino-pyrimidin-4-yloxy)-phenyl]-2-(2,4-bis-trifluoromethyl-phenyl)-acetamide], the GI50 with BaF3 is > 10 µM; with Tel-cKit-BaF3, 1.42 µM; in the experiment on Tel-cKit/T670I-BaF3, 8.9 µM; in the experiment on Tel-FLT3-BaF3, 0.325 µM; with FLT3-ITD-BaF3, 0.109 µM; with TEL-PDGFRα-BaF3 it was 0.007 µM. Further, the GI50 in the experiment on TEL-PDGFRβ-BaF3 was determined as 0.022 µM; in the experiment with TEL-VEGFR2-BaF3, 1.09 µM. The “inhibition of MOLM13 (in words)” value in experiment [1] was “selectively and strongly inhibited”. Besides, the “inhibition of MV4-11 (in words)” value in experiment [2] is “selectively and strongly inhibited”. Further, the “inhibition of MOLM14 (in words)” value in [3] is “selectively and strongly inhibited”.

In the case of `CO[C@@H]1[C@H](N(C)C(=O)c2ccccc2)C[C@H]2O[C@]1(C)n1c3ccccc3c3c4c(c5c6ccccc6n2c5c31)C(=O)NC4` [PKC412, reference compound], the “phosphorylation of the protein kinase FLT3” value with protein kinase FLT3 was “strongly inhibited”. For the same molecule, the “phosphorylation of STATS” value in experiment [4] is listed as “strongly inhibited”. In addition, the “degradation of C-Myc” value in the experiment with C-Myc was “strongly inhibited”.
